Test results as given in patent US6423752B1, “Indane dimer compounds with smooth muscle relaxing and/or mast cell stabilizing and/or anti-inflammatory activity” (Venantius Limited, priority 1995, dated 2002).
Where a name gives a salt, the structure may show the parent alone. Read-outs that look alike come from different tables or passages of the source.

How the values were obtained:
ileum = test: Smooth muscle effects: CaCl2 induced contractions of ileum; set-up: species or system Guinea pigs; details: for inhibition at 0.03 µM / inhibition at 0.1 µM / inhibition at 0.3 µM / inhibition at 1 µM / inhibition at 3 µM / inhibition at 10 µM: Cavia porcellus, read-out: Percentage Inhibition of CaCl2 Induced Contractions
Description: (§1) The compounds were assessed for their ability to stabilize mast cell membranes in vitro. Mast cells treated with the compounds and un-treated mast cells were stimulated to release histamine. A reduction in histamine release by the treated cells compared to the untreated cells indicates stabilisation of the membrane. The compounds were assessed for their ability to relax smooth muscle in vitro. Intestinal smooth muscle was stimulated to contract, using calcium chloride and subsequently treated with the compounds, relaxation of the contraction was measured for each compound. The effects of the compounds were also studied on relaxation of guinea-pig tracheal muscle. In the rat paw oedema test, the drugs were administered systemically prior to inducing inflammation by the injection of carageenan below the plantar aponeurosis of the hind paw. The volume of the paw was determined both before and after treatment as an index of oedema. In the mouse ear oedema test, the drugs were administered topically prior to inducing inflammation by the topical application of arachidonic acid. The width of the ear was determined both before and after treatment as an index of oedema.
(§2) Guinea pigs (350 g approx.), of either sex, were killed in an atmosphere of saturated CO2. The abdomen was opened by a mid-line incision and the small intestine was removed. The trachea was removed and sectioned between the cartilage rings, which were then split through.
(§3) Segments of ileum (1-1.5 cm) were suspended in a high potassium, no calcium Krebs buffer (NaCl 160.44 mM); KCl 45 mM; MgCl2 0.54 mM; NaH2PO4 0.89 mM; NaH2CO3 24.9 mM; Glucose 11.1 mM). Tracheal sections were suspended in normal Krebs buffer (NaCl […]; KCl 4.7 mM; CaCl2 2.5 mM; MgCl2 0.54 mM; NaH2PO4 0.89 mM; NaHCO3 24.9 mM; Glucose 11.1 mM). The solutions were maintained at 37° C. by a jacketed organ bath and gassed with 95% O2 and 5% CO2. The tissues were anchored by thread to the bottom of the organ bath and suspended from force displacement transducers under a resting tension of 1 g approx. in the case of ileum and 4 g approx. in the case of trachea. Isotonic contractions were recorded using a MacLab/4e system in conjunction with the Chart 3.3.1 software package. Surplus tissue was stored at 4° C. in Krebs buffer, for a maximum of 48 hours.
(§4) Four segments of tissue were suspended and observed concurrently. Contractions were initiated by the addition of 25 μl of 1M CaCl2 (a final concentration of 2.5 mM). The contractions stabilized with time, 10-15 min, and could be maintained for up to 45 min. from the addition of the CaCl2. The tracheal sections were allowed to develop spontaneous resting tension over a period of 30 mins.
Stock solutions of drug were prepared at 10^−3M in 50% (v/v) DMSO. These were diluted to give; 10^−4M in 5% (v/v) DMSO and 10^−5M in 0.5% (v/v) DMSO. In cases of poor solubility the 10^−3M stock was made up in higher concentrations of DMSO. Solvent ‘blank’ solutions were prepared containing 50%, 5% and 0.5% (v/v) DMSO (or as appropriate). […] A second cumulative dose-response assay was carried out using DMSO ‘blank’ solutions only.
(§5) Each drug was tested, in duplicate, on at least three different animals (n=3). The results were expressed as percentage inhibition of the CaCl2 induced contraction in the case of ideal tissue and percentage relaxation in the case of tracheal tissue, for each tissue, at each concentration of drug in DMSO. The effect of DMSO, for each tissue at each concentration, was subtracted from the effect of the drug in DMSO, to give the effect of the drug alone. A log dose vs. response curve was plotted for each drug using the mean and the standard error of the mean for the cumulated results.

mast cells = test: Histamine release assay (compound 48/80 stimulated mast cells); format: cell-based, Wistar rats; details: 2 × 10^−5 M, rat peritoneal mast cells; for inhibition at 20 µM: Rattus norvegicus, Mast cell, read-out: Percentage Inhibition of Histamine Release
Description: as §1
The buffered salt solution (BSS) was prepared in advance (NaCl 137 mM; KCl 2.7 mM; MgCl2 1.0 mM; CaCl2 0.5 mM, NaH2PO4 0.4 mM; Glucose 5.6 mM; HEPES 10 mM). This was dispensed into test tubes and heated to 37° C., each test tube contained 4.5 ml BSS. The solvent blank was supplemented with 0.5% (v/v) dimethyl sulphoxide (DMSO) or 0.5% (v/v) distilled water (dH2O). The two positive controls were supplemented with 0.5% (v/v) dH2O/2×10^−5M disodium cromoglycate (DSCG) and 0.5% (v/v) DMSO/2×10^−5M DSCG. The test compounds' incubation tubes contained 2×10^−5M test compound/0.5% (v/v) DMSO. The basal release, maximum release and total histamine content incubation tubes contained no additions.
Female Wistar rats (200-300 g) were killed in an atmosphere of saturated CO2. Pre-warmed BSS (10 ml) was injected i.p. and the abdomen was massaged for 3 min. The BSS, with suspended mast cells and other cells, was aspirated following a mid-line incision. The aspirate was centrifuged for 5 min at 400 g and the supernatant removed. The cells were re-suspended in BSS, at 4° C., and centrifuged as before the cells were washed in this manner a total of three times. Following the final wash, the pelleted cells were stored at 4° C., for use as soon as possible.
The cells were re-suspended in 7 ml BSS. From this, 0.5 ml aliquots were transferred to each of the incubation tubes. After 10 min at 37° C. with gentle agitation, Compound 48/80 was added to a final concentration of […], in order to stimulate histamine release. The cell stimulation was stopped after 2 min by the addition of 0.5 ml ice cold BSS, the incubation tubes were transferred to an ice bath. The cell suspensions were centrifuged for 5 min at 400 g. The “total histamine content” tube was placed at 100° C. for 2 min prior to centrifugation. The supernatants were retained for histamine assay.
To 2 ml of supernatant from each tube was added 0.4 ml of 1M NaOH and 0.1 ml oPT (1% (w/v) in methanol). This was incubated at room temperature for 4 min. The reaction was stopped by the addition of 0.2 ml of 3M HCl. The supernatant from each incubation tube was assayed in duplicate and run simultaneously with a standard curve in the range 0-1000 ng/ml. The presence of the fluorescent product of the reaction was measured using a Shimazu RF-1501 spectrofluorophotometer set at λex=360 nm, λem=450 nm.
Each drug was tested on at least five animals (n=5). The results were expressed as a percentage of maximum, compound 48/80 induced, histamine release in the solvent blank sample. Each drug was compared to DSCG on the same tissues. The basal histamine release in untreated cells was noted, expressed as a percentage of the total histamine content of the cells in suspension. […]

trachea = test: Smooth muscle effects: spontaneous tone of tracheal sections; set-up: species or system Guinea pigs; details: Cavia porcellus, guinea pig trachea, percentage relaxation
Description: as §1, §2, §3, §4
Stock solutions of drug were prepared at 10^−3M in 50% (v/v) DMSO. These were diluted to give; 10^−4M in 5% (v/v) DMSO and 10^−5M in 0.5% (v/v) DMSO. In cases of poor solubility the 10^−3M stock was made up in higher concentrations of DMSO. Solvent ‘blank’ solutions were prepared containing 50%, 5% and 0.5% (v/v) DMSO (or as appropriate). A cumulative dose-response assay was carried out in the range 5×10^−8M to 10^−5M. A second cumulative dose-response assay was carried out using DMSO ‘blank’ solutions only.
as §5

[1] = 3 × 10^−6 M, guinea pig ileum, DMSO effect subtracted
[2] = 3 × 10^−7 M, guinea pig ileum, DMSO effect subtracted
[3] = 3 × 10^−8 M, guinea pig ileum, DMSO effect subtracted
[4] = 10^−5 M, guinea pig ileum, DMSO effect subtracted
[5] = 10^−6 M, guinea pig ileum, DMSO effect subtracted
[6] = 10^−7 M, guinea pig ileum, DMSO effect subtracted

Structure (SMILES): O=C1CC(N(Cc2ccccc2)C2CCc3ccccc32)c2ccccc21 (centres unmarked) [Compound 5C7, 3-(N-benzyl-N-1-indanylamino)-indan-1-one]
- inhibition at 0.03 µM (ileum): 0.16%
- inhibition at 0.1 µM (ileum): -0.44%
- inhibition at 0.3 µM (ileum): -0.36%
- inhibition at 1 µM (ileum): -1.72%
- inhibition at 3 µM (ileum): 0%
- inhibition at 10 µM (ileum): 2.06%
- inhibition at 20 µM (mast cells): 24.1%

Structure (SMILES): CN(C1CCc2ccccc21)C1CC(=O)c2ccccc21 (centres unmarked) [Compound 5C5, 3-(N-methyl-N-1-indanylamino)-indan-1-one]
- inhibition at 3 µM (ileum; [1]): 3.56%
- inhibition at 0.3 µM (ileum; [2]): 0.43%
- inhibition at 0.03 µM (ileum; [3]): -0.26%
- inhibition at 10 µM (ileum; [4]): 10.5%
- inhibition at 1 µM (ileum; [5]): 1.56%
- inhibition at 0.1 µM (ileum; [6]): 0.28%
- inhibition at 20 µM (mast cells): 58.7%

Structure (SMILES): OC1CC(NC2CCc3ccccc32)c2ccccc21 (centres unmarked) [Compound 5C4, 3-(N-1-indanylamino)indan-1-ol]
- inhibition at 3 µM (ileum; [1]): 5.08%
- inhibition at 0.3 µM (ileum; [2]): -0.99%
- inhibition at 0.03 µM (ileum; [3]): -0.86%
- inhibition at 10 µM (ileum; [4]): 19.1%
- inhibition at 1 µM (ileum; [5]): 1.15%
- inhibition at 0.1 µM (ileum; [6]): -0.86%
- inhibition at 20 µM (mast cells): 5.68%

Structure (SMILES): C=CCN(C1Cc2ccccc2C1)C1CC(=O)c2ccccc21 (centres unmarked) [Compound 6C12, 3-(N-prop-2-enyl-N-2-indanylamino)-indan-1-one hydrochloride]
- Percentage Inhibition of Histamine Release (mast cells; hydrochloride): 91.35%

Structure (SMILES): Cc1ccc(S(=O)(=O)N(C2Cc3ccccc3C2)C2CC(=O)c3ccccc32)cc1 (centres unmarked) [Compound 6C10, N-2-Indanyl-N-3-indan-1-onyl-p-toluenesulfonamide]
- inhibition at 3 µM (trachea; 3 × 10^−6 M): -0.75%
- inhibition at 10 µM (trachea; 10^−5 M): 0.5%
- inhibition at 20 µM (mast cells): 51.1%

Structure (SMILES): C=CCN(C1CCc2ccccc21)C1CC(=O)c2ccccc21 (centres unmarked) [5C6 BR]
- inhibition at 3 µM (ileum; [1]): 8.72%
- inhibition at 10 µM (ileum; [4]): 31.6%
- Percentage Inhibition of Histamine Release (mast cells): 78.84%

Structure (SMILES): C=CCN(C1CCc2ccccc21)C1CC(=O)c2ccccc21 (centres unmarked) [Compound 5C11, 3-(N-prop-2-enyl-N-1-indanylamino)-indan-1-one hydrochloride]
- Percentage Inhibition of Histamine Release (mast cells; hydrochloride): 90.27%

Structure (SMILES): O=C1CC(NC2CCc3ccccc32)c2ccccc21 (centres unmarked) [Compound 5C8, 3-(N-1-indanylamino) -indan-1-one. Hydrochloride]
- Percentage Inhibition of Histamine Release (mast cells; hydrochloride): 14.33%

Structure (SMILES): O=C1CC(NC2Cc3ccccc3C2)c2ccccc21 (centres unmarked) [Compound 6C4, 3-(N-2-indanylamino)-indan-1-one]
- Percentage Inhibition of CaCl2 Induced Contractions (ileum; [1]): 17.11%
- Percentage Inhibition of CaCl2 Induced Contractions (ileum; [2]): 4.63%
- Percentage Inhibition of CaCl2 Induced Contractions (ileum; [3]): 2.16%
- Percentage Inhibition of CaCl2 Induced Contractions (ileum; [4]): 33.46%
- Percentage Inhibition of CaCl2 Induced Contractions (ileum; [5]): 8.84%
- Percentage Inhibition of CaCl2 Induced Contractions (ileum; [6]): 3.02%
- Percentage Inhibition of Histamine Release (mast cells): 14.92%

Structure (SMILES): O=C1CC(NC2CCc3ccccc32)c2ccccc21 (centres unmarked) [Compound 5C3, 3-(N-1-indanylamino)-indan-1-one]
- inhibition at 3 µM (ileum; [1]): 15.1%
- inhibition at 0.3 µM (ileum; [2]): 3.78%
- inhibition at 0.03 µM (ileum; [3]): 0.53%
- inhibition at 10 µM (ileum; [4]): 30%
- inhibition at 1 µM (ileum; [5]): 7.21%
- inhibition at 0.1 µM (ileum; [6]): 2.61%
- Percentage Inhibition of Histamine Release (mast cells): 32.77%

Structure (SMILES): O=C1CC(N(Cc2ccccc2)C2Cc3ccccc3C2)c2ccccc21 (centres unmarked) [Compound 6C8, 3-(N-benzyl-N-2-indanylamino)-indan-1-one]
- inhibition at 0.03 µM (ileum): 1.97%
- inhibition at 0.1 µM (ileum): 2.94%
- inhibition at 0.3 µM (ileum): 3.26%
- inhibition at 1 µM (ileum): 4.69%
- inhibition at 3 µM (ileum): 11.3%
- inhibition at 10 µM (ileum): 31.1%
- inhibition at 20 µM (mast cells): 88.6%

Structure (SMILES): Cc1ccc(S(=O)(=O)N(C2CCc3ccccc32)C2CC(=O)c3ccccc32)cc1 (centres unmarked) [Compound 5C10, N-1-Indanyl-N-3-indan-1-onyl-p-toluenesulfonamide]
- inhibition at 20 µM (mast cells): 40.8%

Structure (SMILES): O=C1CC(NC2Cc3ccccc3C2)c2ccccc21 (centres unmarked) [Compound 6C9, 3-(N-2-indanylamino)indan-1-one. Hydrochloride]
- Percentage Inhibition of CaCl2 Induced Contractions (ileum; 3 × 10^−6 M, guinea pig ileum, DMSO effect subtracted, Hydrochloride): −0.86%
- Percentage Inhibition of CaCl2 Induced Contractions (ileum; 3 × 10^−7 M, guinea pig ileum, DMSO effect subtracted, Hydrochloride): −1.76%
- Percentage Inhibition of CaCl2 Induced Contractions (ileum; 3 × 10^−8 M, guinea pig ileum, DMSO effect subtracted, Hydrochloride): 0.31%
- Percentage Inhibition of CaCl2 Induced Contractions (ileum; 10^−5 M, guinea pig ileum, DMSO effect subtracted, Hydrochloride): 1.58%
- Percentage Inhibition of CaCl2 Induced Contractions (ileum; 10^−6 M, guinea pig ileum, DMSO effect subtracted, Hydrochloride): −2.94%
- Percentage Inhibition of CaCl2 Induced Contractions (ileum; 10^−7 M, guinea pig ileum, DMSO effect subtracted, Hydrochloride): 0.61%
- Percentage Inhibition of Histamine Release (mast cells; hydrochloride): 43.60%
